± gives the standard deviation of the averaged measurements.
Key:
Assay in all cases: level (log10 ratio to DMSO vehicle control); higher = higher biomarker level / cell amount than vehicle control
[1] = compound: CCN(CCO)S(=O)(=O)C(F)(F)C(F)(F)C(F)(F)C(F)(F)C(F)(F)C(F)(F)C(F)(F)C(F)(F)F [N-Ethyl-N-(2-hydroxyethyl)perfluorooctanesulfonamide]; conditions: in DMSO
Experimental: (§1)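 BioMAP Diversity Plus panel of 12 human primary cell co-culture systems (3C, 4H, LPS, SAg, BT, BF4T, BE3C, CASM3C, HDF3CGF, KF3CT, MyoF, Mphg). Compounds were added 1 h before stimulation and left for 24 h (MyoF 48 h; BT 72 h for soluble read-outs or 6 d for IgG). Biomarkers were read by ELISA, cytotoxicity by SRB, PBMC viability and proliferation by Alamar Blue. Each well value was divided by the mean of 8 DMSO control wells on the same plate and log10 transformed; duplicate blinded samples were tested at 4 concentrations.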

[2] = compound: FC(F)(F)C(F)(C(F)(F)F)C(F)(F)C(F)(F)CC1CO1 [3-(Perfluoro-3-methylbutyl)-1,2-propenoxide]; conditions: in DMSO
Experimental: as §1

[3] = compound: FC(F)(F)C(F)(F)C(F)(F)C(F)(F)C(F)(F)CCI [1-Iodo-1H,1H,2H,2H-perfluoroheptane]; conditions: in DMSO
Experimental: as §1

[4] = compound: NCC(F)(F)C(F)(F)C(F)(F)C(F)(F)C(F)(F)C(F)(F)C(F)(F)F [1H,1H-Perfluorooctylamine]; conditions: in DMSO
Experimental: as §1

[5] = compound: O=C(O)C(F)(F)C(F)(F)C(F)(F)F [Perfluorobutanoic acid]; conditions: in DMSO
Experimental: as §1

[6] = compound: O=C(O)C(F)(F)OC(F)(F)C(F)(F)OC(F)(F)F [Perfluoro-3,6-dioxaheptanoic acid]; conditions: in DMSO
Experimental: as §1

[7] = compound: OCCC(F)(F)C(F)(F)C(F)(F)C(F)(F)C(F)(F)C(F)(F)F [6:2 Fluorotelomer alcohol]; conditions: in DMSO
Experimental: as §1

[8] = compound: OCCCC(F)(F)C(F)(F)C(F)(F)C(F)(F)C(F)(F)C(F)(F)C(F)(F)F [7:3 Fluorotelomer alcohol]; conditions: 6700 nM; in DMSO
Experimental: as §1

Row | Test System | level (log10) ([1]; 6700 nM) | level (log10) ([1]; 20000 nM) | level (log10) ([2]; 6700 nM) | level (log10) ([2]; 20000 nM) | level (log10) ([3]; 6700 nM) | level (log10) ([3]; 20000 nM) | level (log10) ([3]; 60000 nM) | level (log10) ([4]; 6700 nM) | level (log10) ([4]; 20000 nM) | level (log10) ([4]; 60000 nM) | level (log10) ([5]; 6700 nM) | level (log10) ([5]; 20000 nM) | level (log10) ([5]; 60000 nM) | level (log10) ([6]; 6700 nM) | level (log10) ([6]; 20000 nM) | level (log10) ([6]; 60000 nM) | level (log10) ([7]; 6700 nM) | level (log10) ([7]; 20000 nM) | level (log10) [8]
1 | MyoF:PAI-I | -0.0065 ± 0.0064 | -0.0085 ± 0.018 | -0.0015 ± 0.013 | -0.0035 ± 0.015 | -0.0005 ± 0.00071 | 0.0005 ± 0.00071 | -0.002 ± 0.0042 | 0 ± 0.016 | -0.002 ± 0.014 | -0.005 ± 0.013 | -0.008 ± 0.0014 | -0.0055 ± 0.018 | -0.0105 ± 0.013 | -0.019 ± 0.038 | -0.0245 ± 0.03 | -0.0275 ± 0.025 | 0.002 ± 0.0028 | 0.007 ± 0.0042 | 0.0015 ± 0.0035
2 | MyoF:SRB | -0.0265 ± 0.00071 | -0.175 ± 0.07 | 0.008 ± 0.0085 | 0.005 ± 0.0042 | 0.001 ± 0.0099 | 0.0085 ± 0.015 | 0.0085 ± 0.025 | 0.0035 ± 0.0021 | -0.002 ± 0.0057 | 0.0005 ± 0.005 | 0.0005 ± 0.0035 | -0.001 ± 0.0085 | -0.0125 ± 0.0035 | -0.0055 ± 0.0035 | -0.0015 ± 0.00071 | 0.004 ± 0.0085 | -0.002 ± 0.0085 | 0 ± 0.0028 | 0.006 ± 0.0071
3 | MyoF:TIMP-1 | -0.112 ± 0.011 | -0.0885 ± 0.0092 | -0.0165 ± 0.022 | -0.047 ± 0.052 | 0.0095 ± 0.0064 | -0.009 ± 0.0028 | -0.038 ± 0.025 | 0.0045 ± 0.0092 | 0.01 ± 0.025 | -0.0005 ± 0.0021 | -0.039 ± 0.055 | -0.02 ± 0.02 | 0.0035 ± 0.0092 | -0.0305 ± 0.097 | -0.006 ± 0.079 | -0.001 ± 0.044 | 0.002 ± 0.04 | 0.0085 ± 0.047 | 0.003 ± 0.017
4 | MyoF:alpha-SM Actin | 0.0845 ± 0.023 | -0.235 ± 0.057 | -0.009 ± 0.028 | -0.0295 ± 0.0064 | -0.0265 ± 0.029 | -0.003 ± 0.018 | -0.009 ± 0.0071 | -0.017 ± 0.075 | 0.0285 ± 0.0078 | 0.042 | 0.006 ± 0.037 | 0.003 ± 0.031 | 0.024 ± 0.058 | -0.013 ± 0.0071 | -0.027 ± 0.034 | -0.0095 ± 0.018 | -0.001 ± 0.018 | 0.0095 ± 0.026 | 0.0125 ± 0.0092
5 | MyoF:bFGF | -0.01 ± 0.016 | -0.025 ± 0.0042 | 0.006 ± 0.0099 | -0.001 ± 0.0042 | 0.0005 ± 0.0078 | 0.005 ± 0.011 | 0.046 ± 0.013 | 0.0095 ± 0.028 | 0 ± 0.014 | 0.019 ± 0.0099 | 0.0025 ± 0.0078 | 0.0095 ± 0.0078 | 0.0155 ± 0.0035 | -0.021 ± 0.023 | 0.0045 ± 0.023 | -0.0095 ± 0.021 | 0.0015 ± 0.005 | -0.0085 ± 0.0035 | -0.006 ± 0.0028
6 | lMphg:CCL2/MCP-1 | 0.007 ± 0.034 | 0.002 ± 0.023 | -0.0165 ± 0.012 | 0.0075 ± 0.012 | -0.005 ± 0.021 | -0.027 ± 0.016 | -0.037 ± 0.0071 | -0.03 ± 0.0099 | -0.0245 ± 0.016 | -0.0275 ± 0.04 | -0.0205 ± 0.021 | -0.0165 ± 0.018 | 0.0135 ± 0.022 | 0.0035 ± 0.00071 | -0.006 ± 0.0099 | 0 ± 0.0042 | -0.019 ± 0.0042 | -0.025 ± 0.016 | 0.001 ± 0.0057
